In patent publication US7144880B2, “Compositions relating to novel compounds and targets thereof” (Regents of the University of Michigan, priority 2003, dated 2006):

Key:
human OSCP = molecular target: T1, human OSCP (Homo sapiens, UniProt P48047); experiment: Quenching of intrinsic OSCP fluorescence on titration (binding isotherm); details: human OSCP overexpressed in E. coli, fluorescence quenching
T1 construct: made in house; host or cells: E. coli
From the text: Oligomycin is a macrolide natural product that binds to the mitochondrial F1F0-ATPase, induces a state 3 to 4 transition, and as a result, generates ROS (e.g., O2^−). In preferred embodiments, the present invention binds the OSCP component of the mitochondrial F1F0-ATPase. In certain embodiments, screening assays of the present invention permit detection of binding partners of the OSCP. OSCP is an intrinsically fluorescent protein. In certain embodiments, titrating a solution of test compounds of the present invention into an E. Coli sample overexpressed with OSCP results in quenching of the intrinsic OSCP fluorescence. In other embodiments, fluorescent or radioactive test compounds can be used in direct binding assays. In other embodiments, competition binding experiments can be conducted. In this type of assay, test compounds are assessed for their ability to compete with Bz-423 for binding to the OSCP. In some embodiments, the compounds of the present invention cause a reduced increase in cellular ROS levels and reduced apoptosis in cells through regulation of the OSCP gene (e.g., altering expression of the OSCP gene). In further embodiments, the present invention functions by altering the molecular motions of the ATPase motor.
To determine if Bz-423 indeed binds to the OSCP and the affinity of the interaction, human OSCP was overexpressed in E. coli. […]

[1] = molecular target: T2, bovine serum albumin (BSA) (Bos taurus, UniProt P02769); experiment: Binding to serum albumin in tissue culture media; assay type: in vitro ADME; details: tissue culture media containing 10% (v/v) FBS
T2 construct: from tissue; host or cells: fetal bovine serum (10% v/v) in tissue culture media
T2 sequence (P02769 25-607): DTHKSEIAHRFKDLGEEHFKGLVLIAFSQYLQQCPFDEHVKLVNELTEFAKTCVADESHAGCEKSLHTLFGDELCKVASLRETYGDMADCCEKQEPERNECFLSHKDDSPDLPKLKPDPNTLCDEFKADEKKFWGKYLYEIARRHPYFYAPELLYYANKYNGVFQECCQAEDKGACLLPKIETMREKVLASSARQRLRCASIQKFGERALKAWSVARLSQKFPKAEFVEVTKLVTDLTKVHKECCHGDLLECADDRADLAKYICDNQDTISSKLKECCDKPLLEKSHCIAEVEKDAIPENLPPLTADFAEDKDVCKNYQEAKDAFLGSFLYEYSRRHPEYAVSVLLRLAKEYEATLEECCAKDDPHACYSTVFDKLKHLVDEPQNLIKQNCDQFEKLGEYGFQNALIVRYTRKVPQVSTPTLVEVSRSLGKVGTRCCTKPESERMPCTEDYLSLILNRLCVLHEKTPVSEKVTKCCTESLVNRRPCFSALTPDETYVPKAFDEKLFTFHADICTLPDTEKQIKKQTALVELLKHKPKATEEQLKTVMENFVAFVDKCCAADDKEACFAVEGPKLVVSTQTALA
Method: (§1) Like most 1,4-benzodiazepines, Bz-423 binds strongly to bovine serum albumin (BSA), which reduces the effective concentration of drug free in solution. For example, in tissue culture media containing 10% (v/v) fetal bovine serum (FBS), ca. 99% of the drug is bound to BSA. Therefore, cell culture cytotoxicity assays are conducted in media with 2% FBS to reduce binding to BSA and increase the free [Bz-423]. Under these conditions, the dose response-curve is quite sharp such that there is a limited concentration range at which Bz-423 is only partly effective. Since some benzodiazepines are known to have anti-proliferative properties, the effect of Bz-423 at concentrations <ED50 were carefully analyzed and observed that in addition to inducing apoptosis, Bz-423 prevented cell growth after 3 d in culture. In these low serum conditions, the cytotoxic and anti-proliferative effects overlapped making it difficult to study each effect independently. […] While higher amounts of drug may also block proliferation, it caused apoptosis well before the effects on proliferation could be observed.

Ramos cells [2] = experiment: Gene expression profiling (Affymetrix U133A) of treated cells; assay type: cell-based, human; details: versus control cells
Method: In vitro testing with Ramos cells to determine the changes in gene expression (at the level of mRNA) induced by Bz-423 was performed by culturing cells at a density of 500,000 cells per ml. Solvent control (DMSO, final concentration 0.1% V/V]), Bz-423, or Bz-OMe (10 μM) was added to cells. After 4 h, cells were harvested and RNA prepared using Trizol Reagent (#15596-018, Life Technologies, Rockville, Md.) and the RNeasy Maxi Kit (# 75162, Qiagen, Valencia, Calif.) according to manufacturers protocols. Single stranded cDNA was synthesized by reverse transcription using poly (A) RNA present in the starting total RNA sample. Single stranded cDNA was converted into double stranded cDNA and then in vitro transcription carried out in the presence of biotinylated UTP and CTP to produce biotin-labeled cRNA. cRNA was fragmented in the presence of Mg2+, and hybridized to the human genome U133A Genechip array (Affymetrix). Hybridization results were quantified using a GeneArray scanner and analysis carried out according to the instructions provided by Affymetrix. […]
The data were analyzed to detect genes changes Bz treatment according to the criteria that the log-transformed mean signal changed at least four-fold in treated compared to vehicle control samples and that the coefficient of variance for control values (n=4) was less than 10%. […]

[3] = system: ornithine decarboxylase (ODC); experiment: ODC activity in treated cells, conversion of 3H-ornithine to putrescine; assay type: cell-based; details: cells treated 4 h
Method: In these experiments, the conversion of ornithine to putrescine was quantified using ^3H-ornithine. For comparisons, control cells were treated with vehicle control or difluoromethyl ornithine (DFMO), a potent inhibitor of ornithine decarboxylase (like Bz-423, DFMO is a potent anti-proliferative agent). […] The reduction in ODC activity was paralleled by a decrease in ODC protein levels measured under the same conditions.
As described above, Bz-423 induced apoptosis was signaled by an ROS response that arose from MRC complex III as a result of the state 3 to 4 transition. It was next sought to determine if the ROS response, critical for apoptosis, also mediated these effects on ODC. If the ROS was required for the decrease in ODC activity, it would likewise be implicated as potentially part of the anti-proliferative response to Bz-423. To test this, Ramos cells were treated with Bz-423, DFMO, or vehicle control for 4 h. In parallel, a second group of cells was pre-incubated with MnTBAP to limit the ROS and then cultured with Bz-423, DFMO, and vehicle control.

[4] = system: sub-mitochondrial particles; experiment: Redox cycling, NADH and NAD(P)H oxidation assays with sub-mitochondrial particles; assay type: biochemical; details: SMPs
Method: By contrast, replacing the hydroxyl with chlorine or azide, or methylating the phenol effectively abolishes the cytotoxic activity of Bz-423. […] Such agents accept an electron from MRC enzymes and transfer it back to the chain at point of higher reducing potential. This type of ‘redox cycling’ consumes endogenous reducing equivalents (e.g., glutathione) along with […] nucleotides and results in cell death. To distinguish between these alternatives, it was determined whether Bz-423 redox cycles in the presence of sub-mitochondrial particles using standard NADH and NAD(P)H oxidation assays.

Ramos cells [5] = experiment: Cytotoxicity in media containing 10% FBS; assay type: cell-based, human
From the text: as §1, with “Therefore, cell culture cytotoxicity assays are conducted in media with 2% FBS to reduce binding to BSA and increase the free [Bz-423].” left out

T1 sequence (P48047 24-213): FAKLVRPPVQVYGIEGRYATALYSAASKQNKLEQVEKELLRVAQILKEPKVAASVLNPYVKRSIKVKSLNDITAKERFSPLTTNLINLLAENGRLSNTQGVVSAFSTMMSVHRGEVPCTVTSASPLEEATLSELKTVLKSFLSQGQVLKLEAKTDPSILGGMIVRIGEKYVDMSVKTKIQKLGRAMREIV

CN1C(=O)C(Cc2ccc3ccccc3c2)N=C(c2ccc(O)cc2)c2cc(Cl)ccc21 (stereo not shown) [Bz-423]
Kd (human OSCP): 0.2 ± 0.04 µM | Drug bound to BSA [1]: ca. 99% | Induction of MIF expression (Ramos cells [2]): approximately 10 fold | Effect on ODC activity [3]: significantly reduced ODC activity | Redox cycling (substrate oxidation) [4]: does not lead to substrate oxidation | Cytotoxicity (Ramos cells [5]; 10–15 μM): minimal cytotoxicity | Cytotoxicity (Ramos cells [5]; >20 μM): only apoptosis was observed
